Source: patent EP4803519A1, “NOVEL PRMT5 INHIBITOR AND USE THEREOF” (Shanghai Apeiron Therapeutics Company Limited, priority 2023, dated 2025)

Assays:
Assay type in all cases: cell-based
[1] = system: HCT-116 MTAP(-/-)deleted cells; assay: Inhibitory activity on proliferation of HCT-116 MTAP(-/-)deleted cells (Cell-Titer Glo); settings: Homo sapiens, 144 h, incubated 6 d, 0-1,000 nM
Procedure: (§1) Materials and cells: HCT-116 MTAP(-/-)deleted cells were purchased from Kyinno Biotechnology (China); RPMI-1640 medium, and fetal bovine serum were purchased from Thermo Fisher (United States); 384-well plates were purchased from PerkinElmer (United States); Cell-Titer Glo kit was purchased from Promega (United States).
Cell culture: HCT116 MTAP(-/-)deleted cells were cultured with RPMI 1640 medium containing 10% fetal bovine serum at 37°C in 5% carbon dioxide. Only cells in the logarithmic growth phase could be used for the test.
(§2) Test of inhibitory activity on cell proliferation: The Cell-Titer Glo kit was used to test the proliferation inhibitory activity of the compounds on HCT-116 MTAP(-/-)deleted cells. The cell concentration was adjusted, rendering that cells were inoculated into a 384-well plate at 40 µL per well and incubated overnight at 37°C and 5% carbon dioxide. 80 nL of the compound was added into each well to reach a final concentration of 0-1,000 nM (starting concentration 1,000 nM, 2.5-fold dilution, 10 points), and the cell plate with 0.2% DMSO content was incubated at 37°C and 5% carbon dioxide for 6 d. 40 µL of Cell-Titer Glo reagent was added to test cell viability.

HCT-116 wild-type cells = assay: Inhibitory activity on proliferation of HCT-116 wild-type cells (Cell-Titer Glo); settings: Homo sapiens, 144 h, incubated 6 d, 0-10,000 nM
Procedure: as §1, with “wild-type” for “MTAP(-/-)deleted”
Cell culture: HCT-116 wild-type cells were cultured in RPMI-1640 medium containing 10% fetal bovine serum at 37°C and 5% carbon dioxide. Only cells in the logarithmic growth phase could be used for the test.
Test of cell proliferation activity: Cell-Titer Glo kit was used to test the proliferation inhibitory activity of the compound on HCT-116 wild-type cells. The cell concentration was adjusted, rendering that cells were inoculated into a 384-well plate at 40 µL per well and incubated overnight at 37°C and 5% carbon dioxide. 80 nL of the compound was added to each well to reach a final concentration of 0-10,000 nM (starting concentration 10,000 nM, 2.5-fold dilution, 10 points), and the cell plate with 0.2% DMSO content was incubated at 37°C and 5% carbon dioxide for 6 d. 40 µL of Cell-Titer Glo reagent was added to test cell viability.

[2] = system: LU99 MTAP overexpressing cells; assay: Inhibitory activity on proliferation of LU99 MTAP overexpressing cells (Cell-Titer Glo); settings: Homo sapiens, Lu-99, 144 h, incubated 6 d, 0-10,000 nM
Procedure: (§3) Materials and cells: LU99 MTAP overexpressing cell line was purchased from Kyinno Biotechnology (China); cell culture medium and fetal bovine serum were purchased from Thermo Fisher Scientific (USA); 384-well plates were purchased from PerkinElmer (USA); Cell-Titer Glo kits were purchased from Promega (USA).
Cell culture: LU99 MTAP overexpressing cells were cultured with medium containing 10% fetal bovine serum at 37°C in 5% carbon dioxide. Only cells in the logarithmic growth phase could be used for the test.
Test of inhibitory activity on cell proliferation: The Cell-Titer Glo kit was used to test the proliferation inhibitory activity of the compounds on LU99 MTAP overexpressing cells. The cell concentration was adjusted, rendering that cells were inoculated into a 384-well plate at 40 µL per well and incubated overnight at 37°C and 5% carbon dioxide. 40 nL of the compound was added to each well to reach a final concentration of 0-10,000 nM (starting concentration 10,000 nM, 2.5-fold dilution, 10 points), and the cell plate with 0.2% DMSO content was incubated at 37°C and 5% carbon dioxide for 6 d. 40 µL of Cell-Titer Glo reagent was added to test cell viability.

[3] = system: LU99 MTAP(-/-)deleted cells; assay: Inhibitory activity on proliferation of LU99 MTAP(-/-)deleted cells (Cell-Titer Glo); settings: Homo sapiens, Lu-99, 144 h, incubated 6 d, 0-1,000 nM
Procedure: as §3, with “deleted” for “overexpressing”
Cell culture: LU99 MTAP(-/-)deleted cells were cultured with medium containing 10% fetal bovine serum at 37°C in 5% carbon dioxide. Only cells in the logarithmic growth phase could be used for the test.
as §2, with “on LU99” for “on HCT-116”, “dioxide. 40” for “dioxide. 80”, “added to” for “added into”

Compound	IC50 [1] [nM]	IC50 (HCT-116 wild-type cells) [nM]	IC50 [2] [nM]	IC50 [3] [nM]
CN(C(=O)c1ccc2nc(N)c3c(c2c1)OCCO3)C1COC(C)(C)c2cc(C(F)(F)F)ccc21 (stereo not drawn) [Example 2, 5-Amino-N-(1,1-dimethyl-7-(trifluoromethyl)isochroman-4-yl)-N-methyl-2,3-dihydro-[1,4]dioxa[2,3-c]quinoline-9-carboxamide]	> 3000	> 10000		
CN(C(=O)c1ccc2nc(N)c3ccsc3c2c1)C1COC(C)(C)c2cc(C(F)(F)F)ccc21 (stereo not drawn) [Example 3, 4-Amino-N-(1,1-dimethyl-7-(trifluoromethyl)isochroman-4-yl)-N-methylthieno[3,2-c]quinoline-8-carboxamide]	435	7540		
CN(C(=O)c1ccc2nc(N)c3c(c2c1)CCC3)C1COC(C)(C)c2cc(C(F)(F)F)ccc21 (stereo not drawn) [Example 11, 4-Amino-N-(1,1-dimethyl-7-(trifluoromethyl)isochroman-4-yl)-N-methyl-2,3-dihydro-1H-cyclopenta[c]quinoline-8-carboxamide]	147	3120		
CN(C(=O)c1ccc2nc(N)c3c(c2c1)CCCC3)C1COC(C)(C)c2cc(C(F)(F)F)ccc21 (stereo not drawn) [Example 19, 6-Amino-N-(1,1-dimethyl-7-(trifluoromethyl)isochroman-4-yl)-N-methyl-7,8,9,10-tetrahydrophenanthridine-2-carboxamide]	318	7210		
CN(C(=O)c1ccc2nc(N)c3ccccc3c2c1)C1COC(C)(C)c2cc(C(F)(F)F)ccc21 (stereo not drawn) [Example 20, 6-Amino-N-(1,1-dimethyl-7-(trifluoromethyl)isochroman-4-yl)-N-methylphenanthridine-2-carboxamide]	738	5870		
CN(C(=O)c1ccc2nc(N)c3cnn(C)c3c2c1)C1COC2(CCC2)c2nc(N3CCOCC3)ccc21 (stereo not drawn) [Example 53, 4-amino-N,1-dimethyl-N-(2'-morpholino-5',6'-dihydrospiro[cyclobutane-1,8'-pyrano[3,4-b]pyridin]-5'-yl)-1H-pyrazolo[4,3-c]quinoxaline-8-carboxamide]	312	> 10000		
CN(C(=O)c1ccc2nc(N)c3cnn(C)c3c2c1)[C@@H]1COC(C)(C)c2cc(N3CCOCC3)ncc21 [Example 55]	20.2	> 10000		
CN(C(=O)c1ccc2nc(N)c3cnn(C)c3c2c1)[C@@H]1COC(C)(C)c2cc(C3CCOCC3)ccc21 [Example 58, (S)-4-amino-N-(1,1-dimethyl-7-(tetrahydro-2H-pyran-4-yl)isochroman-4-yl)-N,1-dimethyl-1H-pyrazolo[4,3-c]quinoline-8-carboxamide]			987	5.5
CN(C(=O)c1ccc2nc(N)c3nsnc3c2c1)C1COC2(CCC2)c2cc(C(F)(F)F)ccc21 (stereo not drawn) [Example 59, 4-Amino-N-methyl-N-(7'-(trifluoromethyl)spiro[cyclobutane-1,1'-isochroman]-4'-yl)-[1,2,5]thiadiazolo[3,4-c]quinoline-8-carboxamide]			4020	3140
CN(C(=O)c1ccc2nc(N)c3nsnc3c2c1)C1COC(C)(C)c2cc(C(F)(F)F)ccc21 (stereo not drawn) [Example 60, 4-Amino-N-(1,1-dimethyl-7-(trifluoromethyl)isochroman-4-yl)-N-methyl-[1,2,5]thiadiazolo[3,4-c]quinoline-8-carboxamide]			2950	> 3000

Continued, in another order:

IC50 [1] [nM]	IC50 (HCT-116 wild-type cells) [nM]	Compound	IC50 [2] [nM]	IC50 [3] [nM]
5.2	1200	CN(C(=O)c1ccc2nc(N)c3cnn(C)c3c2c1)C1COC(C)(C)c2cc(C(F)(F)F)ccc21 (stereo not drawn) [Example 1, 4-amino-N-(1,1-dimethyl-7-(trifluoromethyl)isochroman-4-yl)-N,1-dimethyl-1H-pyrazolo [4,3-c] quinoline-8-carboxamide]		
6.2	285	CN(C(=O)c1cc2c(cn1)nc(N)c1cnn(C)c12)C1COC2(CCC2)c2cc(C(F)(F)F)ccc21 (stereo not drawn) [Example 31]		
7.9	435	CN(C(=O)c1ccc2nc(N)c3cnn(C)c3c2c1)C1COC(C)(C)c2cc(-c3cnc4cnccn34)ccc21 (stereo not drawn) [Example 48]		
5.8	1810	CN(C(=O)c1ccc2nc(N)c3cnn(C)c3c2c1)[C@@H]1COC(C)(C)c2nc(N3CCOCC3)ccc21 [Example 54]		
4.4	1330	CN(C(=O)c1ccc2nc(N)c3cnn(C)c3c2c1)[C@@H]1COC(C)(C)c2cc(N3CC4COCC4C3)ccc21 (stereo partly drawn) [Example 56, 4-Amino-N-((4S)-1,1-dimethyl-7-(tetrahydro-1H-furo[3,4-c]pyrrol-5(3H)-yl)isochroman-4-yl)-N,1-dimethyl-1H-pyrazolo[4,3-c]quinoxaline-8-carboxamide]		
5.2	880	CN(C(=O)c1ccc2nc(N)c3cnn(C)c3c2c1)[C@@H]1COC(C)(C)c2cc(C3=CCOCC3)ccc21 [Example 57, (S)-4-amino-N-(7-(3,6-dihydro-2H-pyran-4-yl)-1,1-dimethylisochroman-4-yl)-N,1-dimethyl-1H-pyrazolo[4,3-c]quinoxaline-8-carboxamide]		
10.5	2110	CN(C(=O)c1ccc2nc(N)c3cnn(C)c3c2c1)C1COC(C)(C)c2cc(N3CCC(F)(F)C3)ccc21 (stereo not drawn) [Example 74, 4-Amino-N-(7-(3,3-difluoropyrrolidin-1-yl)-1,1-dimethylisochroman-4-yl)-N,1-dimethyl-1H-pyrazolo[4,3-c]quinoxaline-8-carboxamide]		
8.2	2610	CN(C(=O)c1ccc2nc(N)c3cnn(C)c3c2c1)[C@@H]1COC(C)(C)c2cc(N3CCC4(CC3)COC4)ccc21 [Example 75, (S)-4-amino-N-(1,1-dimethyl-7-(2-oxa-7-azaspiro[3.5]nonan-7-yl)isochroman-4-yl)-N,1-dimethyl-1H-pyrazolo[4,3-c]quinoxaline-8-carboxamide]		
6.1	2520	CN(C(=O)c1ccc2nc(N)c3cnn(C)c3c2c1)[C@@H]1COC(C)(C)c2cc(N3CC(F)(F)C3)ccc21 [Example 76, (S)-4-amino-N-(7-(3,3-difluoroazetidin-1-yl)-1,1-dimethylisochroman-4-yl)-N,1-dimethyl-1H-pyrazolo[4,3-c]quinoxaline-8-carboxamide]		
9.8	1030	CN(C(=O)c1cc2c(cc1C(F)(F)F)nc(N)c1cnn(C)c12)[C@@H]1COC2(CCC2)c2cc(C(F)(F)F)ccc21 [Example 77]		
11.2	763	Cn1ncc2c(N)nc3cnc(C(=O)N(C4CC4)C4COC5(CCC5)c5cc(C(F)(F)F)ccc54)cc3c21 (stereo not drawn) [Example 87, 4-Amino-N-cyclopropyl-1-methyl-N-(7'-(trifluoromethyl)spiro[cyclobutane-1,1'-isochroman]-4'-yl)-1H-pyrazolo[4,3-c][1,7]naphthyridine-8-carboxamide]		
